Measured values reported in patent publication US20230220481A1, “Method for Determining Sensitivity to 2,2'-Dithio-bis-Ethane Sulfonate” (Lantern Pharma Inc., priority 2020, published 2023).

Key:
[1] = system: Non-small cell lung cancer cell line HCC827; experiment: Gene expression level changes by whole transcriptome profiling (RNAseq) in HCC827 cells; type: cell-based; details: 2 h treatment, 1 mM and 15 mM, versus untreated control
From the text: Another embodiment includes a method for treating or determining the sensitivity of non-small cell cancer to a 2,2′-dithio-bis-ethane sulfonate treatment by assessing the level of NRF2 (SEQ ID NO: 1) expression and at least one gene selected from the group consisting of: NQO1 (SEQ ID NO: 2), PHGDH (SEQ ID NO: 3), HMOX1 (SEQ ID NO: 4), SLC7A11 (SEQ ID NO: 5), SRXN1 (SEQ ID NO: 6), SOX2(SEQ ID NO: 7), GPX2 (SEQ ID NO: 8), GPX3 (SEQ ID NO: 9), and GPX7(SEQ ID NO: 10). For illustration, non-small cell lung cancer cell line HCC827 was treated for 2 h with 2,2′-dithio-bis-ethane sulfonate alone at concentrations of 1 mM and 15 mM and gene expression level changes were measured by whole transcriptome profiling using RNAseq. A control sample with no treatment for the same duration was used as the baseline gene expression level. A greater than 1.5 to 2-fold expression level change can be indicative of 2, 2′-dithio-bis-ethane sulfonate sensitivity.
Non-small cell lung cancer cell line HCC827 was treated for 2 h with disodium 2,2′-dithio-bis-ethane sulfonate alone at concentrations of 1 mM and 15 mM and gene expression level changes were measured by whole transcriptome profiling using RNAseq. A control sample with no treatment for the same duration was used as the baseline gene expression level. […]

[2] = system: nuclear factor erythroid 2-related factor 2 (Nrf2); experiment: Induction of nuclear expression of Nrf2 in NGF-differentiated PC12 cells, western blotting; type: cell-based, rat; details: PC12 neuron-like cells
Description: PC12 cells were suspended in DMEM containing 7.5% inactivated fetal bovine serum and 7.5% inactivated horse serum. After seeding onto a type I collagen-coated 100 mm culture dish, these cells were incubated for 7 days in the presence of 100 ng/mL NGF for priming. Culture medium was then replaced with Neurobasal™ medium supplemented with N-2 supplement and 2 mM glutamine containing NGF 30 ng/mL, and cells were incubated again for 3 days for differentiation into neuron-like cells. Next, these cells were treated with 2,2′-dithio-bis-ethane sulfonate 6 mM for 1, 2, 4 and 8 hours, or with a known Nrf2 activator, tert-butylhydroquinone (t-BHQ) 30 μM for 3 hours. Nuclear proteins were then extracted from the cells for detection of nuclear expression of Nrf2 by western blotting.

Row | SMILES | gene expression level change of NRF2 biomarker genes (NQO1, PHGDH, HMOX1, SLC7A11, SRXN1, SOX2, GPX2, GPX3, GPX7) [1] | time at which nuclear expression of Nrf2 started after the start of treatment ([2]; 6 mM) | time until which apparent expression of Nrf2 persisted after the start of treatment ([2]; 6 mM) | induction of nuclear expression of Nrf2 ([2]; 6 mM, 1, 2, 4 and 8 hours) | induction of nuclear expression of Nrf2 ([2]; 30 μM, 3 hours)
1 | O=S(=O)([O-])CCSSCCS(=O)(=O)[O-].[Na+].[Na+] [2,2′-dithio-bis-ethane sulfonate, disodium 2,2′-dithio-bis-ethane sulfonate] | nine genes are upregulated | 1 h | 8 h | induction of nuclear expression of Nrf2 | 
2 | CC(C)(C)c1cc(O)ccc1O [t-BHQ, tert-butylhydroquinone, reference compound] |  |  |  |  | induction of nuclear expression of Nrf2
